Reference: ChEMBL document CHEMBL3137667, “[Drug-induced liver injury; fourteenth updated edition of the bibliographic database of liver injuries and related drugs]” (Gastroenterol Clin Biol, 2004)

Assays:
[1] = human, serum
[2] = human
[3] = human; remark: listed apart in the source
[4] = human; remark: listed apart in the source
[5] = human; remark: listed apart in the source
[6] = human; remark: listed apart in the source
[7] = human, serum; remark: listed apart in the source
[8] = human; remark: listed apart in the source
[9] = human; remark: listed apart in the source
[10] = Highest frequency of moderate liver toxicity observed during clinical trials, expressed as a percentage. [column '% BIOL' in source]; settings: human
[11] = Highest frequency of acute liver toxicity observed during clinical trials, expressed as a percentage. [column '% AIGUE' in source]; settings: human
[12] = Times to onset, minimal and maximal, observed in the indexed observations. [column 'DELAI' in source]; settings: human
[13] = human; remark: listed apart in the source
[14] = human; remark: listed apart in the source
[15] = human, serum, 4383 h
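Throughout, for Hepatotoxicity (association with vascular disease): count of indexed literature references reporting vascular liver injury in humans, e.g. peliosis hepatitis, hepatic veno-occlusive disease or Budd-Chiari syndrome.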
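Throughout, for Hepatotoxicity (benign tumour): value is a count of indexed literature references citing a benign tumour confirmed by histopathology.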
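Throughout, for Hepatotoxicity (choleostasis): human cholestatic liver injury, shown by histopathology or by peak ALT or AST elevation over alkaline phosphatase ratio below 2, value counts indexed literature reports.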
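Throughout, for Hepatotoxicity (chronic liver disease): chronic liver injury confirmed by histopathology or persistently raised serum aminotransferase activity beyond 6 months, value given as the count of indexed literature references.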
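Throughout, for Hepatotoxicity (cirrhosis): value is a count of indexed literature references reporting cirrhosis confirmed by histopathology.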
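Throughout, for Hepatotoxicity (cytolytic): human cytolytic liver injury, shown by histopathology or by a ratio above 5 of peak ALT or AST elevation to alkaline phosphatase elevation, value counts indexed references.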
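Throughout, for Hepatotoxicity (granulomatous hepatitis): value is a count of indexed literature references reporting granulomatous liver disease confirmed by histopathology.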
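Throughout, for Hepatotoxicity (malignant tumour): malignant tumour confirmed by histopathology, value gives the count of indexed literature references reporting it.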
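Throughout, for Hepatotoxicity (severe hepatitis): human clinical data: severe hepatitis, meaning potentially life-threatening liver failure or clinically observed cases, the value counts how many indexed literature references report it.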
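Throughout, for Hepatotoxicity (steatosis): steatosis confirmed by histopathology, value is the count of indexed references.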

Row | Molecule | Hepatotoxicity (moderate) [1] | Hepatotoxicity (steatosis) [2] | Hepatotoxicity (severe hepatitis) [3] | Hepatotoxicity (benign tumour) [4] | Hepatotoxicity (cytolytic) [5] | Hepatotoxicity (choleostasis) [6] | Hepatotoxicity (acute) [7] | Hepatotoxicity (malignant tumour) [8] | Hepatotoxicity (association with vascular disease) [9] | Hepatotoxicity (moderate) [10] | Hepatotoxicity (acute) [11] | Hepatotoxicity (time to onset) [12] | Hepatotoxicity (cirrhosis) [13] | Hepatotoxicity (granulomatous hepatitis) [14] | Hepatotoxicity (chronic liver disease) [15]
1 | UROKINASE | 0 | 0 | 0 | 0 | 1 | 0 | 1 | 0 | 0 | 0% | 0% | 2 days | 0 | 0 | 0
2 | NS(=O)(=O)c1cc2c(cc1Cl)NC(C(Cl)Cl)NS2(=O)=O (stereo not given) [TRICHLORMETHIAZIDE] | 1 | 0 | 0 | 0 | 0 | 0 | 0 | 0 | 0 | 0% | 0% | 1 week | 0 | 1 | 0
3 | N=C(N)NCC1COc2ccccc2O1 (stereo not given) [GUANOXAN] | 2 | 0 | 1 | 0 | 1 | 2 | 2 | 0 | 0 | 30% | 10% | 2 months - 1 year | 0 | 0 | 0
4 | [H]/N=C(/N)N/C(=N/[H])NCCc1ccccc1 [PHENFORMIN] | 0 | 0 | 0 | 0 | 0 | 0 | 1 | 0 | 0 | 0% | 0% | 1 week | 0 | 0 | 0
5 | CN(C)CC(Oc1ccccc1)Oc1ccccc1 [MEDIFOXAMINE] | 0 | 0 | 2 | 0 | 1 | 0 | 1 | 0 | 0 | 0% | 0% | 6 days | 0 | 0 | 0
